Assay results: US7908091B2, “Methods of predicting and monitoring tyrosine kinase inhibitor therapy” (Prometheus Laboratories Inc., priority 2006, dated 2011)
Where two headings read alike, the source gives them in different places.

Tests used:
[1] = human, in vivo; cited from earlier work
[2] = tested on: non-small cell lung cancer; conditions: patients with refractory non-small cell lung cancer in whom standard therapy failed; cited from earlier work
MDA-MB-361 = experiment: gefitinib sensitivity (IC50) of cancer cell line
SkBr3 = experiment: gefitinib sensitivity (IC50) of cancer cell line
DU145 = experiment: gefitinib sensitivity (IC50) of cancer cell line
Akt = conditions: gefitinib concentration of 10 μM, data from FIG. 3 of Moasser et al., cited from earlier work
A431 = experiment: gefitinib sensitivity (IC50) of cancer cell line
BT474 = experiment: gefitinib sensitivity (IC50) of cancer cell line
SkOv3 = experiment: gefitinib sensitivity (IC50) of cancer cell line
MDA-MB-453 = experiment: gefitinib sensitivity (IC50) of cancer cell line
renal cell carcinoma = conditions: human, in vivo; cited from earlier work
[3] = tested on: hormone refractory prostate cancer; conditions: in vivo; cited from earlier work
[4] = tested on: refractory acute myeloid leukemia; conditions: twice weekly administration; cited from earlier work
[5] = tested on: prostate cancer, renal cell carcinoma, or multiple myeloma; conditions: in vivo; cited from earlier work
advanced kidney cancer = conditions: after a 12-week treatment period, compared to the placebo group; cited from earlier work
[6] = tested on: EGF-dependent cell proliferation; conditions: cited from earlier work
[7] = tested on: advanced stage III or IV non-small cell lung cancer; conditions: progressive disease after standard chemotherapies; cited from earlier work
[8] = tested on: refractory ovarian cancer; conditions: in vivo; cited from earlier work

CS(=O)(=O)CCNCc1ccc(-c2ccc3ncnc(Nc4ccc(OCc5cccc(F)c5)c(Cl)c4)c3c2)o1 [lapatinib]
most common / toxic side-effects [1]: diarrhea and skin rash

COc1cc2ncnc(Nc3ccc(F)c(Cl)c3)c2cc1OCCCN1CCOCC1 [gefitinib]
response rate [2]: about 10%
CATAG (gefitinib-sensitive) (MDA-MB-361): 1 (An IC50 <9 μM was considered gefitinib-sensitive (“CATAG” = 1))
CATAG (gefitinib-sensitive) (SkBr3): 1 (An IC50 <9 μM was considered gefitinib-sensitive (“CATAG” = 1))
CATAG (gefitinib-sensitive) (DU145): 1 (An IC50 <9 μM was considered gefitinib-sensitive (“CATAG” = 1))
Akt (level of Akt activity) (Akt; A431): 2
Akt (level of Akt activity) (Akt; A549): 85
Akt (level of Akt activity) (Akt; BT474): 10
Akt (level of Akt activity) (Akt; Colo205): 105
Akt (level of Akt activity) (Akt; DU145): 35
Akt (level of Akt activity) (Akt; DU4475): 105
Akt (level of Akt activity) (Akt; MCF-7): 70
Akt (level of Akt activity) (Akt; MDA-MB-361): 20
Akt (level of Akt activity) (Akt; MDA-MB-453): 40
Akt (level of Akt activity) (Akt; MDA-MB-468): 90
Akt (level of Akt activity) (Akt; MDA-MIB-231): 70
Akt (level of Akt activity) (Akt; PC3): 55
Akt (level of Akt activity) (Akt; SkBr3): 2
Akt (level of Akt activity) (Akt; SkOv3): 40
Akt (level of Akt activity) (Akt; T24): 90
Akt (level of Akt activity) (Akt; T47D): 85
Akt (level of Akt activity) (Akt; ZR75): 85
CATAG (gefitinib-sensitive) (A431): 1 (An IC50 <9 μM was considered gefitinib-sensitive (“CATAG” = 1))
CATAG (gefitinib-sensitive) (BT474): 1 (An IC50 <9 μM was considered gefitinib-sensitive (“CATAG” = 1))
CATAG (gefitinib-sensitive) (SkOv3): 1 (An IC50 <9 μM was considered gefitinib-sensitive (“CATAG” = 1))
CATAG (gefitinib-sensitive) (MDA-MB-453): 1 (An IC50 <9 μM was considered gefitinib-sensitive (“CATAG” = 1))

Clc1ccc(Nc2nnc(Cc3ccncc3)c3ccccc23)cc1 [vatalanib]
patients with minor responses (renal cell carcinoma): 15%
patients with partial responses (renal cell carcinoma): 5%

Cc1oncc1C(=O)Nc1ccc(C(F)(F)F)cc1 [leflunomide]
most common / toxic side-effects [1]: asthenia, nausea, anorexia, and anemia
patients with a decrease in prostate specific antigen of greater than 50% [3]: about 7%
patients with partial responses [3]: less than 5%

Cc1cc(C)c(/C=C2\C(=O)Nc3ccccc32)[nH]1 [semaxinib]
most common / toxic side-effects [1]: headache, nausea, vomiting, asthenia, pain at the infusion site, phlebitis, change in voice, and fever
complete responses [4]: 1
partial responses [4]: 7
objective response rates [5]: minimal objective response rates

CNC(=O)c1cc(Oc2ccc(NC(=O)Nc3ccc(Cl)c(C(F)(F)F)c3)cc2)ccn1 [sorafenib]
most common / toxic side-effects [1]: skin reactions such as hand-foot syndrome and rash, diarrhea, fatigue, weight loss, and hypertension
patients whose disease did not progress (advanced kidney cancer): statistically higher percentage of patients whose disease did not progress

C#Cc1cccc(Nc2ncnc3cc(OCCOC)c(OCCOC)cc23)c1 [erlotinib]
most common / toxic side-effects [1]: an acneiform skin rash and diarrhea
inhibits EGF-dependent cell proliferation [6]: nanomolar concentrations
median survival [7]: 8.4 months
response rate [7]: 12%

C=CC(=O)Nc1cc2c(Nc3ccc(F)c(Cl)c3)ncnc2cc1OCCCN1CCOCC1 [canertinib]
antitumor activity [8]: minimal antitumor activity
